Experimental data published in patent US9877999B2, “Methods for treating metastatic stage prostate cancer” (Ferring International SA, priority 2008, dated 2018).
Read-outs that look alike come from different tables or passages of the source. Square brackets hold non-standard residues; d marks the D form. Peptide text beside a SMILES is read from it. * marks the point of attachment. dPhe(4-NHCONH2) = NC(=O)Nc1ccc(C[C@@H](N)C(=O)O)cc1; Dihydroorotyl(S) = O=C1C[C@@H](C(=O)*)NC(=O)N1; dPhe(4-Cl) = N[C@H](Cc1ccc(Cl)cc1)C(=O)O; Phe(4-NH2) = Nc1ccc(C[C@H](N)C(=O)O)cc1; d2Nal = N[C@H](Cc1ccc2ccccc2c1)C(=O)O; Lys(iPr) = CC(C)NCCCC[C@H](N)C(=O)O; d3Pal = N[C@H](Cc1cccnc1)C(=O)O

Legend:
[1] = system: follicle stimulating hormone (FSH); assay: Serum FSH levels over time (clinical study CS21); type: in vivo, human; conditions: by day 7; degarelix
Method: (§1) The study also investigated whether degarelix is safe and effective with respect to achieving and maintaining testosterone suppression to castrate levels, evaluated as the proportion of patients with testosterone suppression ≦0.5 ng/mL during 12 months of treatment. […] The study also evaluated the pharmacokinetics of the degarelix dosing regimens investigated. Finally, the study examined the effects of using the degarelix treatment on patients suffering from different stages of cancer.
(§2) Patients in two treatment groups received a degarelix starting dose of 240 mg at a concentration of 40 mg/mL (240@40) on day 0 administered as two equivalent subcutaneous (s.c.) injections of 120 mg each. Thereafter, patients received 12 additional single s.c. degarelix doses of either 80 mg at a concentration of 20 mg/mL (80@20: degarelix 240/80 mg group) or 160 mg at a concentration of 40 mg/mL (160@40: degarelix 240/160 mg group) administered s.c. every 28 days.
(§3) The secondary efficacy endpoints were: the proportion of patients with testosterone surge during the first 2 weeks of treatment; the proportion of patients with testosterone level ≦0.5 ng/mL at day 3; the percentage change in PSA from baseline to day 28; the probability of testosterone ≦0.5 ng/mL from day 56 through day 364; the levels of serum testosterone, LH, FSH and PSA over time through the study; the time to PSA failure, defined as two consecutive increases of 50%, and at least 5 ng/mL as compared to nadir; degarelix concentration over the first month and trough levels at day 308 and 336; the frequency and size of testosterone increases at day 255 and/or 259 compared to the testosterone level at day 252; the quality of life on days 0, 28, 84, 168 and end of study visit; the frequency and intensity of hot flushes experienced (scored daily from study start until end of study visit). In addition, two further secondary endpoints were added: the probability of sufficient testosterone response from day 28 through day 364 (a patient was considered to have insufficient testosterone response if they had one testosterone value >1.0 ng/mL or two consecutive testosterone values >0.5 ng/mL at day 28 onwards); and the percentage change in PSA from baseline to day 14.

[2] = system: human CYP450 (cytochrome P450) system
[3] = human, in vivo
[4] = system: serum alkaline phosphatase (S-ALP); assay: S-ALP analysis in prostate cancer patients (clinical study CS21); type: in vivo, human; conditions: Degarelix 240/80 mg
Method: Patients with histologically confirmed adenocarcinoma of the prostate (all stages), for whom androgen deprivation therapy was indicated were recruited. Baseline characteristics were well balanced between groups. Approximately half of patients had locally advanced (29.2%) or metastatic (20.5%) disease at baseline. […] Patients receiving leuprolide could also receive bicalutamide for clinical flare protection. The S-ALP levels were measured in each patient at various time points, by taking a blood sample and analyzing for S-ALP. S-ALP levels were measured using a standardized colorimetric assay based on the p-nitrophenyl phosphate AMP buffer method. The normal range for S-ALP is 44-147 IU/L. The S-ALP values in non-metastatic patients serve as controls. An ANOVA analysis with treatment and day as factors and baseline value as covariate was used to determine between treatment differences at Day 364. A repeated measures analysis (incorporating all time points from Day 112) with treatment and day as factors and baseline value as covariate was used to assess between treatment differences from Day 112 to Day 364.

clinical [5] = assay: clinical; design: species or system human; conditions: in vivo
Excerpt: Plasma protein binding is estimated to be approximately 90%.

in vitro = conditions: plasma
testosterone = type: in vivo, human; conditions: for overall proportion of patients with testosterone ≦0.5 ng/mL from day 28 to day 364: observed cases analysis
Method: The study also evaluated the pharmacokinetics of the degarelix dosing regimens investigated. Finally, the study examined the effects of using the degarelix treatment on patients suffering from different stages of cancer. […] The primary efficacy endpoint was the probability of testosterone levels remaining ≦0.5 ng/mL from day 28 through day 364. […] The primary efficacy endpoint was analyzed for both the ITT and PP analysis sets, with the ITT analysis set considered primary. The primary efficacy endpoint was analyzed using the Kaplan Meier method. For each of the three treatment groups, testosterone response rates with 95% confidence interval (CI) were calculated by log-log transformation of survivor function. […] All secondary efficacy endpoints were analyzed for both the ITT and PP analysis sets, unless otherwise stated. […] The percentage change in PSA from baseline to day 28 endpoint was analyzed by a Wilcoxon test.

clinical [6] = conditions: male, human, in vivo, sc, 240 mg
luteinizing hormone (LH) = assay: Serum LH levels over time (clinical study CS21); type: in vivo, human; conditions: day 1; degarelix, ITT analysis set
Method: as §1, §2, §3

[7] = human, in vivo, sc

substrate for the human CYP450 system [2]: not a substrate
fraction excreted via the hepato-biliary system (clinical [5]): approximately 80%
Vd (clinical [5]; male, human): ~1 L/kg
clearance (clinical [5]; male, human): 0.583 to 0.833 mL/min/kg
dose excreted (clinical [5]; male, human): ~20%
fraction unbound (in vitro): ~0.1
proportion of patients with testosterone surge (increase 15% from baseline) (testosterone; human, in vivo): 0.2%
Cmax (clinical [6]): 53.4 ng/mL
Tmax (clinical [6]): 1.4 days
half-life (clinical [6]; T½): 43 days
half-life (clinical [6]; median terminal half-life): ~43 days
significant metabolites in plasma samples [7]: No significant metabolites were detected
AUC ([7]; 240 mg): 1240 ng·days/mL
Compound: CC(=O)N[C@H](Cc1ccc2ccccc2c1)C(=O)N[C@H](Cc1ccc(Cl)cc1)C(=O)N[C@H](Cc1cccnc1)C(=O)N[C@@H](CO)C(=O)N[C@@H](Cc1ccc(NC(=O)[C@@H]2CC(=O)NC(=O)N2)cc1)C(=O)N[C@H](Cc1ccc(NC(N)=O)cc1)C(=O)N[C@@H](CC(C)C)C(=O)N[C@@H](CCCCNC(C)C)C(=O)N1CCC[C@H]1C(=O)N[C@H](C)C(N)=O [degarelix, D-Alaninamide, N-acetyl-3-(2-naphthalenyl)-D-alanyl-4-chloro-D-phenylalanyl-3-(3-pyridinyl)-D-alanyl-L-seryl-4-[[[(4S)-hexahydro-2,6-dioxo-4-pyrimidinyl]carbonyl]amino]-L phenylalanyl-4-[(aminocarbonyl)amino]-D-phenylalanyl-L leucyl-N6-(1-methylethyl)-L-lysyl-L-prolyl] (Ac-[d2Nal][dPhe(4-Cl)][d3Pal]S[Phe(4-NH2)](Dihydroorotyl(S))[dPhe(4-NHCONH2)]L[Lys(iPr)]P[dA]-NH2)
decrease of median FSH from baseline [1]: > 80%
median FSH level [1]: ≤ 1.5 IU/L
tolerability [3]: generally well tolerated
S-ALP mean change from baseline ([4]; Localized, Day 112): +5 IU/L
S-ALP mean change from baseline ([4]; Localized, Day 224): +8 IU/L
S-ALP mean change from baseline ([4]; Localized, Day 364): +10 IU/L
S-ALP mean change from baseline ([4]; Locally advanced, Day 112): +6 IU/L
S-ALP mean change from baseline ([4]; Locally advanced, Day 224): +7 IU/L
S-ALP mean change from baseline ([4]; Locally advanced, Day 364): +10 IU/L
S-ALP mean change from baseline ([4]; Metastatic (Hb < 130 g/L), Day 112): −160 IU/L
S-ALP mean change from baseline ([4]; Metastatic (Hb < 130 g/L), Day 224): −200 IU/L
S-ALP mean change from baseline ([4]; Metastatic (Hb < 130 g/L), Day 364): −230 IU/L
S-ALP mean change from baseline ([4]; Metastatic, Day 112): −90 IU/L
S-ALP mean change from baseline ([4]; Metastatic, Day 224): −100 IU/L
S-ALP mean change from baseline ([4]; Metastatic, Day 364): −90 IU/L
S-ALP mean change from baseline ([4]; baseline PSA 10-20 ng/mL, Day 112): +5 IU/L
S-ALP mean change from baseline ([4]; baseline PSA 10-20 ng/mL, Day 224): +8 IU/L
S-ALP mean change from baseline ([4]; baseline PSA 10-20 ng/mL, Day 364): +13 IU/L
S-ALP mean change from baseline ([4]; baseline PSA 20-50 ng/mL, Day 112): +5 IU/L
S-ALP mean change from baseline ([4]; baseline PSA 20-50 ng/mL, Day 224): +7.5 IU/L
S-ALP mean change from baseline ([4]; baseline PSA 20-50 ng/mL, Day 364): +4.5 IU/L
S-ALP mean change from baseline ([4]; baseline PSA < 10 ng/mL, Day 112): +4.5 IU/L
S-ALP mean change from baseline ([4]; baseline PSA < 10 ng/mL, Day 224): +5.5 IU/L
S-ALP mean change from baseline ([4]; baseline PSA < 10 ng/mL, Day 364): +7 IU/L
S-ALP mean change from baseline ([4]; baseline PSA > 50 ng/mL, Day 112): −60 IU/L
S-ALP mean change from baseline ([4]; baseline PSA > 50 ng/mL, Day 224): −70 IU/L
S-ALP mean change from baseline ([4]; baseline PSA > 50 ng/mL, Day 364): −60 IU/L
median testosterone level (testosterone; 240 mg then monthly 80 mg, after one year): 0.087 ng/mL
patients with sustained testosterone suppression (testosterone; 240 mg then monthly 80 mg, at least one year): 97%
Kaplan-Meier estimate of the probability of testosterone ≦0.5 ng/mL from day 28 to day 364 (testosterone; degarelix 240/80 mg group): 97.2%
Kaplan-Meier estimate of the probability of testosterone ≦0.5 ng/mL from day 28 to day 364 (testosterone; degarelix 240/160 mg group): 98.3%
overall proportion of patients with testosterone ≦0.5 ng/mL from day 28 to day 364 (testosterone; degarelix 240/80 mg group): 97.0%
overall proportion of patients with testosterone ≦0.5 ng/mL from day 28 to day 364 (testosterone; degarelix 240/160 mg group): 98.2%
patients exhibiting testosterone suppression on day 3 (testosterone; patients receiving degarelix): 96%
decrease of median LH from baseline (luteinizing hormone (LH)): approximately 88%
median LH level (luteinizing hormone (LH)): < 0.7 IU/L
